According to US10774071B2, “PD-1/PD-L1 inhibitors” (Gilead Sciences, Inc., priority 2018, dated 2020):
Like-named read-outs stand apart in the source and are kept apart here.

Experiments:
PD-1/PD-L1 = PD-1/PD-L1 (Homo sapiens (Human), UniProt Q9NZQ7); assay: PD-1/PD-L1 biochemical protein-protein interaction assay (ALPHA); type: binding; conditions: 0.3 nM His tagged PD-L1, 2.5 nM biotinylated Fc-PD-1, readings of 0.064 nM are equal to or less than 0.064 nM, read-out: IC50 PD-L1-PD1
Method: Compounds were tested in biochemical protein-protein interaction assays to determine if they can specifically block the interaction between the extracellular domains of PD-1/PD-L1 or CTLA/CD80. Binding of the protein pairs is measured using a bead based Amplified Luminescent Proximity Homogeneous Assay (ALPHA) platform. […] Final protein concentration in the assays were 0.3 nM (His tagged PD-L1), 2.5 nM (biotinylated Fc-PD-1), 1 nM (His tagged CTLA4) and 1 nM (biotinylated CD80).

PD-L1 = PD-L1 (Homo sapiens (Human), UniProt Q9NZQ7); assay: PD-L1/PD-L1 dimerization biochemical protein-protein interaction assay (ALPHA); type: binding; conditions: read-out: AC50 PDL1 Dimer 1 nM
[1] = 0.5 nM His tagged PD-L1 and 0.5 nM FLAG tagged PD-L1, Table 4A
[2] = 0.5 nM His tagged PD-L1 and 0.5 nM FLAG tagged PD-L1, Table 4B

PD-L1, sequence (Q9NZQ7 19-238): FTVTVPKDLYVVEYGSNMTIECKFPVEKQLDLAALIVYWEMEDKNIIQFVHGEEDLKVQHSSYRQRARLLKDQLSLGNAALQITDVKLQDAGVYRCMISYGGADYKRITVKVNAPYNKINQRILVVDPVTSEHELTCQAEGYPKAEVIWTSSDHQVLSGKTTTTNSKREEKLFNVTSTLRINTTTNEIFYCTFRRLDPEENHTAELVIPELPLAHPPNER
PD-L1, sequence (Q9NZQ7 19-238): as above
PD-1/PD-L1, sequence (Q9NZQ7 19-238): as above

Row | Structure (SMILES) | IC50 (PD-1/PD-L1) [nM] | AC50 (PD-L1; [1]) [nM] | AC50 (PD-L1; [2]) [nM]
1 | COc1nc(-c2cccc(-c3cccc4c3CC[C@@H]4Nc3nc(OC)c(CN4CC5(C(=O)O)CCC4CC5)cc3C(F)(F)F)c2Cl)ccc1CNC[C@@H]1CCC(=O)N1 [A-1] | ≤ 0.064 | 13.2 | 
2 | COc1nc(-c2cccc(-c3cccc4c3CC[C@@H]4Nc3nc(OC)c(CN4CC[C@@](C)(C(=O)O)C4)cc3C(F)(F)F)c2Cl)ccc1CNC[C@@H]1CCC(=O)N1 [A-2, (R)-1-((6-(((S)-4-(2-chloro-3-(6-methoxy-5-(((((S)-5-oxopyrrolidin-2-yl)methyl)amino)methyl)pyridin-2-yl)phenyl)-2,3-dihydro-1H-inden-1-yl)amino)-2-methoxy-5-(trifluoromethyl)pyridin-3-yl)methyl)-3-methylpyrrolidine-3-carboxylic acid] | ≤ 0.064 | 13.5 | 
3 | COc1nc(-c2cccc(-c3cccc4c3CC[C@@H]4Nc3nc(OC)c(CN4CC[C@H](C(=O)O)C4)cc3C(F)(F)F)c2Cl)ccc1CNC[C@@H]1CCC(=O)N1 [A-3] | ≤ 0.064 | 13.9 | 
4 | COc1nc(-c2cccc(-c3cccc4c3CC[C@@H]4Nc3nc(OC)c(CN4CC[C@@H](C(=O)O)C4)cc3C(F)(F)F)c2Cl)ccc1CNC[C@@H]1CCC(=O)N1 [A-4] | ≤ 0.064 | 14.3 | 
5 | COc1nc(-c2cccc(-c3cccc4c3CC[C@@H]4Nc3nc(OC)c(CN4CC5(C(=O)O)CCC4CC5)cc3Cl)c2Cl)ccc1CNC[C@@H]1CCC(=O)N1 [A-5] | ≤ 0.064 | 113 | 
6 | COc1nc(-c2cccc(-c3cccc4c3CC[C@@H]4Nc3nc(OC)c(CN4CC(C)(O)C4)cc3Cl)c2Cl)ccc1CNC[C@@H]1CCC(=O)N1 [A-6] | 0.67 | 188 | 
7 | COc1nc(-c2cccc(-c3cccc4c3CC[C@@H]4Nc3nc(OC)c(CNC4(C(=O)O)CC4)cc3C(F)(F)F)c2Cl)ccc1CN1CC2(CCC(=O)N2)C1 [A-23] | ≤ 0.064 |  | 
8 | COc1nc(-c2cccc(-c3cccc4c3CC[C@@H]4Oc3nc(OC)c(CNC4(C(=O)O)CCOCC4)cc3Cl)c2Cl)ccc1CNC[C@@H]1CCC(=O)N1 [B-15] |  |  | 9.55
9 | COc1nc(-c2cccc(-c3cccc4c3CC[C@@H]4Oc3nc(OC)c(CN4CCC[C@@H]4C(=O)O)cc3Cl)c2Cl)ccc1CNC[C@@H]1CCC(=O)N1 [B-16] |  |  | 24.5
10 | COc1nc(-c2cccc(-c3cccc4c3CC[C@@H]4Oc3nc(OC)c(CN4CCC[C@@]4(C)C(=O)O)cc3Cl)c2Cl)ccc1CNC[C@@H]1CCC(=O)N1 [B-17] |  |  | 4.29
11 | COc1nc(-c2cccc(-c3cccc4c3CC[C@@H]4Oc3nc(OC)c(CN4CCC[C@H]4C(=O)O)cc3Cl)c2Cl)ccc1CNC[C@@H]1CCC(=O)N1 [B-18] |  |  | 17.5
12 | COc1nc(-c2cccc(-c3cccc4c3CC[C@@H]4Oc3nc(OCc4cncc(Cl)c4)c(CNC4(C(=O)O)CC4)cc3C(F)(F)F)c2Cl)ccc1CNC[C@@H]1CCC(=O)N1 [B-29] |  |  | 4.08
13 | COc1nc(-c2cccc(-c3cccc4c3CC[C@@H]4Oc3nc(OCc4cncc(F)c4)c(CN4CC5(C(=O)O)CCC4CC5)cc3Cl)c2Cl)ccc1CNC[C@@H]1CCC(=O)N1 [B-33] |  |  | 14.7
14 | COc1nc(-c2cccc(-c3cccc4c3CC[C@@H]4Oc3nc(OC)c(CNC4(C(=O)O)CCC4)cc3Cl)c2Cl)ccc1CNC[C@@H]1CCC(=O)N1 [B-35] |  |  | 9.06
15 | COc1nc(-c2cccc(-c3cccc4c3CC[C@@H]4Oc3nc(OC(F)F)c(CN4CC5(C(=O)O)CCC4CC5)cc3Cl)c2Cl)ccc1CNC[C@@H]1CCC(=O)N1 [B-40] |  |  | 48.6
16 | CCOc1nc(O[C@H]2CCc3c(-c4cccc(-c5ccc(CNC[C@@H]6CCC(=O)N6)c(OC)n5)c4Cl)cccc32)c(Cl)cc1CN1CC2(C(=O)O)CCC1CC2 [B-46] |  |  | 14.7
17 | CCOc1nc(O[C@H]2CCc3c(-c4cccc(-c5ccc(CNC[C@@H]6CCC(=O)N6)c(OC)n5)c4Cl)cccc32)c(Cl)cc1CN1CC[C@H](C(=O)O)C1 [B-47] |  |  | 27.4
18 | COc1nc(-c2cccc(-c3cccc4c3CC[C@@H]4Oc3nc(OC)c(CN[C@@H]4CCC[C@@H]4C(=O)O)cc3Cl)c2Cl)ccc1CNC[C@@H]1CCC(=O)N1 [B-53] |  |  | 31.1
19 | COc1nc(-c2cccc(-c3cccc4c3CC[C@@H]4Oc3nc(OC)c(CNC4(C(=O)O)CC4)cc3Cl)c2Cl)ccc1CNC[C@@H]1CCC(=O)N1 [B-54] |  |  | 10.2
20 | COc1nc(-c2cccc(-c3cccc4c3CC[C@@H]4Oc3nc(OCC#N)c(CN4CC5(C(=O)O)CCC4CC5)cc3Cl)c2Cl)ccc1CNC[C@@H]1CCC(=O)N1 [B-55] |  |  | 10.7
21 | COc1nc(-c2cccc(-c3cccc4c3CC[C@@H]4Oc3nc(OCc4cncc(C#N)c4)c(CN4CC[C@H](C(=O)O)C4)cc3Cl)c2Cl)ccc1CNC[C@@H]1CCC(=O)N1 [B-65] |  |  | 15.3
22 | COc1nc(-c2cccc(-c3cccc4c3CC[C@@H]4Oc3nc(OCc4cncc(C#N)c4)c(CN4CC[C@@H](C(=O)O)C4)cc3Cl)c2Cl)ccc1CNC[C@@H]1CCC(=O)N1 [B-66] |  |  | 38.1

Continued, values first:

Row | IC50 (PD-1/PD-L1) [nM] | AC50 (PD-L1; [1]) [nM] | AC50 (PD-L1; [2]) [nM] | Structure (SMILES)
23 |  |  | 30.3 | COc1nc(-c2cccc(-c3cccc4c3CC[C@@H]4Oc3nc(OCc4cncc(C#N)c4)c(CN4CC5(C(=O)O)CCC4CC5)cc3Cl)c2Cl)ccc1CNC[C@@H]1CCC(=O)N1 [B-67]
24 |  |  | 93.8 | COc1nc(-c2cccc(-c3cccc4c3CC[C@@H]4Oc3nc(OC)c(CN4CC(C(=O)NS(C)(=O)=O)C4)cc3Cl)c2Cl)ccc1CN1CC(C)(O)C1 [B-75]
25 |  |  | 83.2 | COc1nc(-c2cccc(-c3cccc4c3CC[C@@H]4Oc3nc(OC)c(CN4CC[C@@H](C(=O)NS(C)(=O)=O)C4)cc3Cl)c2Cl)ccc1CN1CC(C)(O)C1 [B-76]
26 |  |  | 70.8 | COc1nc(O[C@H]2CCc3c(-c4cccc(-c5cnc([C@@H](C)NC[C@H]6CCC(=O)N6)c(OC)n5)c4Cl)cccc32)c(Cl)cc1CN1CC[C@@H](C(=O)O)C1 [B-79]
27 |  |  | 37.3 | COc1nc(-c2cccc(-c3cccc4c3CC[C@@H]4Oc3nc(OC)c(CN4CC[C@H](C(=O)NS(C)(=O)=O)C4)cc3Cl)c2Cl)ccc1CNC[C@@H]1CCC(=O)N1 [B-84]
28 |  |  | 103 | COc1nc(-c2cccc(-c3cccc4c3CC[C@@H]4Oc3nc(OC)c(CN4CC(C(=O)O)C4)cc3Cl)c2Cl)ccc1CN1CC(C)(O)C1 [B-100]
29 |  |  | 783 | CCOC(=O)C1CN(Cc2cc(Cl)c(O[C@H]3CCc4c(-c5cccc(-c6ccc(CNC[C@@H]7CCC(=O)N7)c(OC)n6)c5Cl)cccc43)nc2OC)C1 [B-105]
30 |  |  | 696 | COC(=O)[C@@H]1CCN(Cc2cc(Cl)c(O[C@H]3CCc4c(-c5cccc(-c6ccc(CNC[C@@H]7CCC(=O)N7)c(OC)n6)c5Cl)cccc43)nc2OC)C1 [B-108]
31 |  |  | 40.9 | COc1nc(-c2cccc(-c3cccc4c3CC[C@@H]4Oc3nc(OC)c(CN4CCC[C@@H](C(=O)NS(C)(=O)=O)C4)cc3Cl)c2Cl)ccc1CNC[C@@H]1CCC(=O)N1 [B-109]
32 |  |  | 97.1 | COc1nc(-c2cccc(-c3cccc4c3CC[C@@H]4Oc3nc(OC)c(CN4CC(C(=O)NS(=O)(=O)C(F)F)C4)cc3Cl)c2Cl)ccc1CNC[C@@H]1CCC(=O)N1 [B-110]
33 |  |  | 139 | COc1nc(-c2cccc(-c3cccc4c3CC[C@@H]4Oc3nc(OC)c(CN4CC[C@@H](C(=O)NS(=O)(=O)C(F)F)C4)cc3Cl)c2Cl)ccc1CNC[C@@H]1CCC(=O)N1 [B-111]
34 |  |  | 170 | CCS(=O)(=O)NC(=O)[C@@H]1CCN(Cc2cc(Cl)c(O[C@H]3CCc4c(-c5cccc(-c6ccc(CNC[C@@H]7CCC(=O)N7)c(OC)n6)c5Cl)cccc43)nc2OC)C1 [B-112]
35 |  |  | 29.9 | COc1nc(-c2cccc(-c3cccc4c3CC[C@@H]4Oc3nc(OC)c(CN4CC[C@@H](C(=O)NS(C)(=O)=O)C4)cc3Cl)c2Cl)ccc1CNC[C@@H]1CCC(=O)N1 [B-113]
